Data on 14 molecules can be found in patent publication US9133183B2, “Imidazolidinones and analogs exhibiting anti-cancer and anti-proliferative activities” (Deciphera Pharmaceuticals, LLC, priority 2013, dated 2015).

The target in assay [1] is unphosphorylated c-FMS kinase (uFMS, Seq. ID no. 1) (Homo sapiens (Human), UniProt P07333). The assay can be described thus: uFMS kinase assay (ADP production coupled to pyruvate kinase/lactate dehydrogenase). The assay is classed as biochemical. The settings on record: enzymatic assay, ATP 500 μM. The gist of the method: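 Unphosphorylated FMS (10 nM) with polyE4Y 1 mg/mL and 500 μM ATP in 90 mM Tris pH 7.5, 10 mM MgCl2, 0.2% octyl-glucoside, 1% DMSO. ADP formation was coupled via pyruvate kinase/LDH to NADH oxidation, followed at A340 for 4 h at 30° C.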

The subject of another assay is osteoclast precursors. The assay can be described thus: Osteoclast tartrate-resistant acid phosphatase assay. The assay is classed as cell-based. Conditions: Osteoclast, 7-14 days, RANKL and M-CSF.
Assay [2] addresses c-FMS kinase in THP-1 cells (Homo sapiens (Human), UniProt P07333). Kind of assay: Phospho-FMS ELISA assay in THP-1 cells. Format: cell-based. As to the method: THP-1 cells (catalog #TIB-202) were obtained from the ATCC. Briefly, cells were grown in RPMI 1640 supplemented with 10% characterized fetal bovine serum, 1% sodium pyruvate, 1% Penicillin-Streptomycin-Glutamine (PSG) and 55 uM 2-mercaptoethanol (Invitrogen, Carlsbad, Calif.) at 37 degrees Celsius, 5% CO2, 95% humidity. Cells were allowed to expand until reaching 70-95% confluency at which point they were subcultured or harvested for assay use.
A serial dilution of test compound was diluted 1:100 in assay medium (RPMI 1640 supplemented with 10% characterized fetal bovine serum) in a 96 well black clear bottom plate (Corning, Corning, N.Y.). In a separate 96 well black clear bottom plate, one hundred and fifty thousand THP-1 cells were added per well in 100 μL in assay medium. Fifty microliters of diluted compound was then added to the cells. Plates were incubated for 4 hours at 37 degrees Celsius, 5% CO2, 95% humidity. At the end of the incubation period, cells were stimulated with 50 μL of a 100 nM solution of recombinant human M-CSF (catalog #216-MC, R & D Systems, Minneapolis, Minn.) in assay medium and the plate was incubated for 5 minutes at 37 degrees Celsius, 5% CO2, 95% humidity. Lysates were prepared and used to perform the phospho-FMS ELISA as described by the manufacturer (catalog #DYC3268, R & D Systems, Minneapolis, Minn.). GraphPad Prism was used to calculate IC50 values obtained from data generated from the ELISA assay.

Another assay deals with M-NFS-60 cells. The assay can be described thus: M-NFS-60 cell proliferation assay (resazurin). Conditions: 67 h incubation. The assay is classed as cell-based. The gist of the method: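 Cells kept in medium containing 20 ng/mL mouse recombinant M-CSF. Fluorescence was read at ex 540/em 600 nm, and IC50 was fitted from percent inhibition across a range of inhibitor concentrations.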
For orientation: Alamar Blue is a resazurin reagent that responds to reducing activity.

For assay [3], the target named is unphosphorylated c-KIT kinase (uKIT, Seq. ID no. 2) (Homo sapiens (Human), UniProt P10721). Kind of assay: uKit kinase assay (coupled pyruvate kinase/lactate dehydrogenase). The assay is classed as biochemical. Conditions: enzymatic assay, ATP 2000 μM. The gist of the method: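 Unphosphorylated KIT (12 nM, N-terminal GST fusion) was run with 1 mg/mL polyE4Y, 2000 μM ATP and 10 mM MgCl2 in Tris buffer (pH 7.5, 0.2% octyl-glucoside, 1% DMSO). ADP was coupled via PK/LDH, with NADH loss tracked at A340 for 4 h at 30 °C. Rates at 3–4 h gave % inhibition and IC50.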

The target of assay [4] is unphosphorylated PDGFRβ kinase (uPDGFRβ, Seq. ID No. 3) (Homo sapiens (Human), UniProt P09619). Kind of assay: Unphosphorylated PDGFRβ kinase assay (coupled pyruvate kinase/lactate dehydrogenase). Conditions: enzymatic assay, ATP 500 μM. Format: biochemical. The gist of the method: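 Construct residues 557-1106, unphosphorylated, 15.7 nM, with poly E4Y 2.5 mg/mL and 500 μM ATP, Tris pH 7.5, 1% DMSO, 30 °C. ADP coupled to NADH oxidation via PK/LDH, A340 followed 4 h; rate from 1.5-2.5 h versus no-compound control, IC50 from percent-inhibition series.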

The mark [5] stands for this setting: 4 h compound, M-CSF stimulation 5 min, read-out: pFMS inhibition in THP-1 cells.

pIC50: −log10 of the molar value. Like-named read-outs stand apart in the source and are kept apart here. A value given as a limit tells only on which side of the number the result lay.

Chain of c-FMS kinase in THP-1 cells (P07333 20-972): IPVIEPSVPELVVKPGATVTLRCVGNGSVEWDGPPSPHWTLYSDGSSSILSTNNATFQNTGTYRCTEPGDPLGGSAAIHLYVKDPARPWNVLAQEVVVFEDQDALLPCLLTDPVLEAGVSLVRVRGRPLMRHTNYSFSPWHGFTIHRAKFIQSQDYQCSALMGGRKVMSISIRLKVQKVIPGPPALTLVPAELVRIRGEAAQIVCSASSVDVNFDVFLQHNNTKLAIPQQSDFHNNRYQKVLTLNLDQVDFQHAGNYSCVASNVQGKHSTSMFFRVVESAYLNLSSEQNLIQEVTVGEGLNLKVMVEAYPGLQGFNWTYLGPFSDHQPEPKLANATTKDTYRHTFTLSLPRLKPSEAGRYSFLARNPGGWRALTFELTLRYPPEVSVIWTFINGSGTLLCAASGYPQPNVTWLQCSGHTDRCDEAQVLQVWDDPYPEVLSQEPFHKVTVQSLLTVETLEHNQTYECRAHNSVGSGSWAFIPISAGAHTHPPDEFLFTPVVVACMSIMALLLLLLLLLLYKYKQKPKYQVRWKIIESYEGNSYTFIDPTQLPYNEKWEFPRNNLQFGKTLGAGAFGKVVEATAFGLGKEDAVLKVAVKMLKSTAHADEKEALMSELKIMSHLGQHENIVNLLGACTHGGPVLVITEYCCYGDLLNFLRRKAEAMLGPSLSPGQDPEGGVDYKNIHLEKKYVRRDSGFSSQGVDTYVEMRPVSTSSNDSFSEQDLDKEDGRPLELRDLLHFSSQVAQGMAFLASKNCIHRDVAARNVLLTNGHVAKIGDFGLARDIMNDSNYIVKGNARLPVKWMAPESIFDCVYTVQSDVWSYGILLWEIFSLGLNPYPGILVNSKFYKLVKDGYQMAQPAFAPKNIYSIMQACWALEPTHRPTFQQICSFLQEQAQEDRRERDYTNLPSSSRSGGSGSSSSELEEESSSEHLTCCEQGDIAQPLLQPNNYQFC
Chain of unphosphorylated c-KIT kinase (uKIT, Seq. ID no. 2) (P10721 other isoform, or with tags, fused parts or gaps): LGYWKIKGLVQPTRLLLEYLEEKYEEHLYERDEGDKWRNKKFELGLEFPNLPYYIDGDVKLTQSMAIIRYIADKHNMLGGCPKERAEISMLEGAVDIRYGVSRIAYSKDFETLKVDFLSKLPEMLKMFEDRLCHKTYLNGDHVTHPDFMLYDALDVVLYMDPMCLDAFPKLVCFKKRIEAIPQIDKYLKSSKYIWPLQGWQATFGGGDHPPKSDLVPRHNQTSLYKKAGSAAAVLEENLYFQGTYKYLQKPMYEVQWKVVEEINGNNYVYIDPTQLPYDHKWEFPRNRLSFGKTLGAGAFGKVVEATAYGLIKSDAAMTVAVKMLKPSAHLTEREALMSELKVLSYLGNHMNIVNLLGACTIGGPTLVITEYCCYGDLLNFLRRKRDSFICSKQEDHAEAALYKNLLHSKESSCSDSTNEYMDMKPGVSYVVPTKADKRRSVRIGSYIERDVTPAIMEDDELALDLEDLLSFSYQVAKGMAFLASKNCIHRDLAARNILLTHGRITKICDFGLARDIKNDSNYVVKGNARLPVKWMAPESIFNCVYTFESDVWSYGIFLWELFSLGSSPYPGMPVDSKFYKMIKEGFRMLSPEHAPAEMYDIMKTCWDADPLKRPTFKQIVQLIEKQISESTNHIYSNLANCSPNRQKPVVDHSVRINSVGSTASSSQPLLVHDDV
Chain of unphosphorylated PDGFRβ kinase (uPDGFRβ, Seq. ID No. 3) (P09619 557-1106): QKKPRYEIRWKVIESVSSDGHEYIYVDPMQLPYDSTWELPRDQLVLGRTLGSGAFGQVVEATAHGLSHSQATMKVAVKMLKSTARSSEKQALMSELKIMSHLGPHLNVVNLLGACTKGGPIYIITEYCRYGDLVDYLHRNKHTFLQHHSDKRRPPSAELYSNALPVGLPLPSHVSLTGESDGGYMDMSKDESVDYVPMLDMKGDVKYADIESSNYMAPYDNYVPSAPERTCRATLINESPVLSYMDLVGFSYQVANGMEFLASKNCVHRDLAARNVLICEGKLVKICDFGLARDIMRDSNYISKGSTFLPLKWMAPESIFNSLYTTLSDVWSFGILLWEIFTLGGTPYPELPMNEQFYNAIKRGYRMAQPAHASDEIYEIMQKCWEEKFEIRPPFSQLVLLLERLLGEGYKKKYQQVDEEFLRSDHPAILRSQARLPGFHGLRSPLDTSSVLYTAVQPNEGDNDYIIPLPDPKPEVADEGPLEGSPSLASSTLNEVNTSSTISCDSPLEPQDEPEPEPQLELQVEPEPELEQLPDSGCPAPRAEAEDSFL
Chain of unphosphorylated c-FMS kinase (uFMS, Seq. ID no. 1) (P07333 538-972): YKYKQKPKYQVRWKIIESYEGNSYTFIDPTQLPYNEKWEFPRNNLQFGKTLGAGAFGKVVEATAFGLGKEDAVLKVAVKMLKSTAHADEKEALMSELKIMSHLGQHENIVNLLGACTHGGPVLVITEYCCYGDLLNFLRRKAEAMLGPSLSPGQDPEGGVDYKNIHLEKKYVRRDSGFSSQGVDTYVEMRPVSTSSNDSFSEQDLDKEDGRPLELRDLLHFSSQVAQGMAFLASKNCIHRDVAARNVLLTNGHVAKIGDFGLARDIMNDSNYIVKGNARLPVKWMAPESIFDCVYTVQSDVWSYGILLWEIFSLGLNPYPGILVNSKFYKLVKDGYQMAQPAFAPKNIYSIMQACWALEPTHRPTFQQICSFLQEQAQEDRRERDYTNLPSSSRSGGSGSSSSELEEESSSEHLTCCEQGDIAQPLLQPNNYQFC

In the case of `Cc1nc(NC(=O)N2CCN(C3CCOCC3)C2=O)ccc1Oc1ccnc(-c2cn[nH]c2)c1` [Example 9, N-(5-((2-(1H-pyrazol-4-yl)pyridin-4-yl)oxy)-6-methylpyridin-2-yl)-2-oxo-3-(tetrahydro-2H-pyran-4-yl)imidazolidine-1-carboxamide], the pIC50 in assay [1] (read-out: uFMS) is 7.00 to 8.00; in the assay with osteoclast precursors, 7.00 to 8.00; in assay [2] (setting [5]), 7.00 to 8.00; in the assay on M-NFS-60 cells, 6.00 to 7.00.

As to `Cn1cc(-c2cc(Oc3cc(F)c(NC(=O)N4CCN(C5CCOCC5)C4=O)cc3Cl)ccn2)cn1` [Example 92, N-(5-chloro-2-fluoro-4-((2-(1-methyl-1H-pyrazol-4-yl)pyridin-4-yl)oxy)phenyl)-2-oxo-3-(tetrahydro-2H-pyran-4-yl)imidazolidine-1-carboxamide], the pIC50 is greater than 8.00 in assay [1] (read-out: uFMS); 7.00 to 8.00 in the assay with osteoclast precursors; 7.00 to 8.00 in assay [2] (setting [5]); 7.00 to 8.00 in assay [3]; 7.00 to 8.00 with M-NFS-60 cells.

Regarding `O=C(Nc1cc(Cl)c(Oc2ccnc(-c3cn[nH]c3)c2)cc1F)N1CCN(C2CCOCC2)C1=O` [Example 94, N-(4-((2-(1H-pyrazol-4-yl)pyridin-4-yl)oxy)-5-chloro-2-fluorophenyl)-2-oxo-3-(tetrahydro-2H-pyran-4-yl)imidazolidine-1-carboxamide], the pIC50 in assay [1] (read-out: uFMS) is 7.00 to 8.00; in the assay on osteoclast precursors, 6.00 to 7.00; in assay [2] (setting [5]) it was 7.00 to 8.00; in the assay on M-NFS-60 cells, 6.00 to 7.00.

Take `Cn1cc(-c2cc(Oc3ccc(NC(=O)N4CCN(C5CCOCC5)C4=O)cc3Cl)ccn2)cn1` [Example 96, N-(3-chloro-4-((2-(1-methyl-1H-pyrazol-4-yl)pyridin-4-yl)oxy)phenyl)-2-oxo-3-(tetrahydro-2H-pyran-4-yl)imidazolidine-1-carboxamide]: the pIC50 is 7.00 to 8.00 in assay [1] (read-out: uFMS), 6.00 to 7.00 in the assay with osteoclast precursors, 7.00 to 8.00 in assay [2] (setting [5]) and less than 6.00 in the assay on M-NFS-60 cells.

As to `[2H]C([2H])([2H])n1cc(-c2cc(Oc3ccc(NC(=O)N4CCN([C@@H]5CCOC5)C4=O)nc3C)ccn2)cn1` [Example 37, (R)—N-(6-methyl-5-((2-(1-(trideuteromethyl)-1H-pyrazol-4-yl)pyridin-4-yl)oxy)pyridin-2-yl)-2-oxo-3-(tetrahydrofuran-3-yl)imidazolidine-1-carboxamide], the pIC50 is 7.00 to 8.00 in assay [1] (uFMS); less than 6.00 in assay [4]; 7.00 to 8.00 with osteoclast precursors; 7.00 to 8.00 in assay [2]; 6.00 to 7.00 in assay [3]; 7.00 to 8.00 in the assay on M-NFS-60 cells.

Regarding `Cc1nc(NC(=O)N2CCN(C3CCOC3)C2=O)ccc1Oc1ccnc(-c2cnn(C)c2)c1` (stereo in doubt) [Example 23, (S)—N-(6-methyl-5-((2-(1-methyl-1H-pyrazol-4-yl)pyridin-4-yl)oxy)pyridin-2-yl)-2-oxo-3-(tetrahydrofuran-3-yl)imidazolidine-1-carboxamide], the pIC50 is 7.00 to 8.00 in assay [1] (uFMS); less than 6.00 in assay [4]; 7.00 to 8.00 in the assay with osteoclast precursors; 7.00 to 8.00 in assay [2]; less than 6.00 in assay [3]; 7.00 to 8.00 in the assay with M-NFS-60 cells.

As to `Cn1cc(-c2cc(Oc3ccc(NC(=O)N4CCN(C5CCOCC5)C4=O)nc3)ncn2)cn1` [Example 8, N-(5-((6-(1-methyl-1H-pyrazol-4-yl)pyrimidin-4-yl)oxy)pyridin-2-yl)-2-oxo-3-(tetrahydro-2H-pyran-4-yl)imidazolidine-1-carboxamide], the pIC50 in assay [1] (read-out: uFMS) was 7.00 to 8.00; in the assay with osteoclast precursors, 7.00 to 8.00; in assay [2] (setting [5]), 7.00 to 8.00; with M-NFS-60 cells it was 6.00 to 7.00.

In the case of `Cc1cc(-c2cc(Oc3ccc(NC(=O)N4CCN(C5CCOCC5)C4=O)nc3C)ccn2)on1` [Example 14, N-(6-methyl-5-((2-(3-methylisoxazol-5-yl)pyridin-4-yl)oxy)pyridin-2-yl)-2-oxo-3-(tetrahydro-2H-pyran-4-yl)imidazolidine-1-carboxamide], the pIC50 is 7.00 to 8.00 in assay [1] (read-out: uFMS); less than 6.00 in assay [4]; 7.00 to 8.00 with osteoclast precursors; 6.00 to 7.00 in assay [2] (setting [5]); 6.00 to 7.00 in the assay with M-NFS-60 cells.

With `O=C(Nc1ccc(Oc2ccnc(-c3cn[nH]c3)c2)cn1)N1CCN(C2CCOCC2)C1=O` [Example 5, N-(5-((2-(1H-pyrazol-4-yl)pyridin-4-yl)oxy)pyridin-2-yl)-2-oxo-3-(tetrahydro-2H-pyran-4-yl)imidazolidine-1-carboxamide], the pIC50 is 7.00 to 8.00 in assay [1] (uFMS); 6.00 to 7.00 in assay [4]; 7.00 to 8.00 with osteoclast precursors; 6.00 to 7.00 in assay [2]; 7.00 to 8.00 with M-NFS-60 cells.

As for `CC(=O)Nc1cc(Oc2cc(F)c(NC(=O)N3CCN(C4CCOCC4)C3=O)cc2Cl)ccn1` [Example 97, N-(4-((2-acetamidopyridin-4-yl)oxy)-5-chloro-2-fluorophenyl)-2-oxo-3-(tetrahydro-2H-pyran-4-yl)imidazolidine-1-carboxamide], the pIC50 in assay [1] (read-out: uFMS) is 7.00 to 8.00; in the assay on osteoclast precursors it was 6.00 to 7.00; in assay [2] (setting [5]), 6.00 to 7.00; in the assay on M-NFS-60 cells, 6.00 to 7.00.

Regarding `Cn1cnc(-c2cc(Oc3ccc(NC(=O)N4CCN(CC(F)(F)F)C4=O)nc3)ccn2)c1` [Example 84, N-(5-((2-(1-methyl-1H-imidazol-4-yl)pyridin-4-yl)oxy)pyridin-2-yl)-2-oxo-3-(2,2,2-trifluoroethyl)imidazolidine-1-carboxamide], the pIC50 was 7.00 to 8.00 in assay [1] (read-out: uFMS); less than 6.00 in assay [4]; 7.00 to 8.00 in the assay on osteoclast precursors; 7.00 to 8.00 in assay [3]; 7.00 to 8.00 in the assay on M-NFS-60 cells.

As to `Cc1nc(NC(=O)N2CCN(C3CC3)C2=O)ccc1Oc1ccnc(-c2cnn(C)c2)c1` [Example 47, 3-cyclopropyl-N-(6-methyl-5-((2-(1-methyl-1H-pyrazol-4-yl)pyridin-4-yl)oxy)pyridin-2-yl)-2-oxoimidazolidine-1-carboxamide], the pIC50 in assay [1] (read-out: uFMS) was greater than 8.00; in assay [4] it was less than 6.00; in the assay with osteoclast precursors it was greater than 8.00; in assay [3], 6.00 to 7.00; in the assay on M-NFS-60 cells, 7.00 to 8.00.

`CCN1CCN(C(=O)Nc2ccc(Oc3ccnc(-c4cnc(C)s4)c3)cn2)C1=O` [Example 69, 3-ethyl-N-(5-((2-(2-methylthiazol-5-yl)pyridin-4-yl)oxy)pyridin-2-yl)-2-oxoimidazolidine-1-carboxamide]: the pIC50 in assay [1] (read-out: uFMS) was 7.00 to 8.00; in assay [4], less than 6.00; with osteoclast precursors, 7.00 to 8.00; in assay [3], 7.00 to 8.00; in the assay with M-NFS-60 cells it was 6.00 to 7.00.

Turning to `CN1CCN(C(=O)Nc2ccc(Oc3ccnc(-c4cnn(C)c4)c3)cn2)C1=O` [Example 44, 3-methyl-N-(5-((2-(1-methyl-1H-pyrazol-4-yl)pyridin-4-yl)oxy)pyridin-2-yl)-2-oxoimidazolidine-1-carboxamide], the pIC50 was 7.00 to 8.00 in assay [1] (read-out: uFMS); less than 6.00 in assay [4]; 7.00 to 8.00 in the assay on osteoclast precursors; 6.00 to 7.00 in assay [3]; 6.00 to 7.00 with M-NFS-60 cells.
